Measurements: PMC7179312 (Antimicrobial Agents and Chemotherapy, 2020)

Assays:
[1] = test system: P. aeruginosa PAM1154 carrying pUCP24-KPC-2::L169P (PAM4751); test: MIC, CLSI broth microdilution; type: cell-based, Pseudomonas aeruginosa; conditions: for MIC: Pseudomonas aeruginosa, PAM4751, pUCP24-KPC-2::L169P, drug alone
Text: (§1) The effects of KPC mutations on resistance to various antibiotics were investigated. For these studies, pUCP24 plasmids carrying wild-type and mutant blaKPC-2 genes as well as the pUCP24 vector were transformed into PAM1154, an efflux-deficient strain of Pseudomonas aeruginosa. In this host, the effect of β-lactamases on β-lactam MIC is amplified due to the slowed uptake of β-lactams across the low-permeability outer membrane without interference by efflux of either β-lactams or BLIs. Consequently, this host allows detection of β-lactamase activity (as an MIC increase) of low-catalytic-efficiency enzymes that rely heavily on the low permeability of the outer membrane. Using the strain that lacks efflux pumps ensures no interference from efflux in interpreting results. We next evaluated the steady-state protein expression levels in bacterial cells.
(§2) For microbiological studies, wild-type blaKPC-2 and its mutant variants were cloned into the shuttle vector pUCP24. Resulting plasmids were transformed in the efflux-deficient strain of P. aeruginosa PAM1154 using selection on 15 μg/ml of gentamicin. Using a strain of P. aeruginosa as opposed to E. coli as a host for various cloned genes was based on the following consideration. As well documented elsewhere ([41]), P. aeruginosa has a low-permeability outer membrane; consequently, the effect of β-lactamases on MIC is amplified in P. aeruginosa compared to that in E. coli due to the slowed uptake of β-lactams. Thus, this host is appropriate to detect β-lactamase activity (as an MIC increase) of low-catalytic-efficiency enzymes that rely heavily on low permeability of the outer membrane. […] MICs were determined using the Clinical and Laboratory Standards Institute (CLSI) broth microdilution method as described in CLSI document M07-A11 ([42]). […] BLI potency was defined as PV50 (PV, potentiation value). PV50 is the minimal concentration of a BLI that is required to reduce the antibiotic MIC to the middle of the MIC range (E50) where the highest MIC is the MIC for a KPC-producing strain with no inhibitor added and the lowest MIC is the MIC for the vector-only strain, corresponding to the complete inhibition of KPC. E50 is calculated as the square root of the product of the antibiotic MICs for the KPC-producing and the vector-only strains.

[2] = test system: P. aeruginosa PAM1154 carrying pUCP24-KPC-2::D179Y (PAM4639); test: MIC, CLSI broth microdilution; type: cell-based, Pseudomonas aeruginosa; conditions: for MIC: Pseudomonas aeruginosa, PAM4639, pUCP24-KPC-2::D179Y, drug alone
Text: as §1, §2

[3] = test system: P. aeruginosa PAM1154 carrying wild-type KPC-2 (PAM4135); test: Checkerboard potentiation of antibiotic activity by BLIs; type: cell-based, Pseudomonas aeruginosa; conditions: PAM4135 KPC-2
Text: (§3) BLI potency was defined as PV50 (PV, potentiation value) of antibiotic potentiation. PV50 is the concentration of a BLI that is required to reduce the antibiotic MIC to the middle of the MIC range where the highest MIC is the MIC for a KPC-producing strain with no inhibitor added and the lowest MIC is the MIC for the vector-alone strain, which corresponds to complete inhibition of KPC. As a given MIC is directly related to the β-lactamase activity, PV50 might be considered the concentration of a BLI that is required to achieve half-effect of inhibition of β-lactamase activity (in whole cells) to hydrolyze an antibiotic of interest. […] However, the accurate determination of PV50 requires the MIC range to be relatively wide.
as §2
(§4) […]
(§5) […]

[4] = test system: P. aeruginosa PAM1154 carrying KPC-2::D179Y (PAM4639); test: as above; type: cell-based, Pseudomonas aeruginosa; conditions: for Beta-lactam MIC in the presence of BLI: PAM4639 KPC-2 D179Y
Text: as §3, §2, §4, §5

[5] = test system: P. aeruginosa PAM1154 carrying KPC-2::L169P (PAM4751); test: as above; type: cell-based, Pseudomonas aeruginosa; conditions: for Beta-lactam MIC in the presence of BLI: PAM4751 KPC-2 L169P
Text: as §3, §2, §4, §5

[6] = test system: P. aeruginosa PAM1154 carrying pUCP24-KPC-2 (PAM4135); test: MIC, CLSI broth microdilution; type: cell-based; conditions: Pseudomonas aeruginosa; PAM4135, pUCP24-KPC-2; drug alone
Text: as §1, §2

Compound: CO/N=C(\C(=O)N[C@@H]1C(=O)N2C(C(=O)[O-])=C(C[N+]3(C)CCCC3)CS[C@H]12)c1csc(N)n1 [Cefepime, cefepime]
- reduction of MIC vs wild-type KPC-2 strain ([1]; L169P strain): 4 fold
- MIC [1]: 64 µg/mL
- increase of MIC vs vector-only strain ([1]; {}): 512 fold
- reduction of MIC vs wild-type KPC-2 strain ([2]; D179Y strain): 4 fold
- MIC [2]: 64 µg/mL
- increase of MIC vs vector-only strain ([2]; {}): 512 fold
- Beta-lactam MIC in the presence of BLI ([3]; avibactam 0 µg/ml): 64 µg/mL
- Beta-lactam MIC in the presence of BLI ([3]; avibactam 0.008 µg/ml): 64 µg/mL
- Beta-lactam MIC in the presence of BLI ([3]; avibactam 0.031 µg/ml): 64 µg/mL
- Beta-lactam MIC in the presence of BLI ([3]; avibactam 0.06 µg/ml): 32 µg/mL
- Beta-lactam MIC in the presence of BLI ([3]; avibactam 0.5 µg/ml): 0.5 µg/mL
- Antibiotic MIC, No BLI ([3]; no BLI): 64 µg/mL
- Beta-lactam MIC in the presence of BLI ([3]; vaborbactam 0 µg/ml): 64 µg/mL
- Beta-lactam MIC in the presence of BLI ([3]; vaborbactam 0.008 µg/ml): 64 µg/mL
- Beta-lactam MIC in the presence of BLI ([3]; vaborbactam 0.031 µg/ml): 64 µg/mL
- Beta-lactam MIC in the presence of BLI ([3]; vaborbactam 0.06 µg/ml): 64 µg/mL
- Beta-lactam MIC in the presence of BLI ([3]; vaborbactam 0.5 µg/ml): 2 µg/mL
- Antibiotic MIC with avibactam at 4 μg/ml ([4]; PAM4639 KPC-2::D179Y, avibactam 4 μg/ml): 2 µg/mL
- Antibiotic MIC, No BLI ([4]; PAM4639 KPC-2::D179Y, no BLI): 32 µg/mL
- Antibiotic MIC with vaborbactam at 8 μg/ml ([4]; PAM4639 KPC-2::D179Y, vaborbactam 8 μg/ml): 0.25 µg/mL
- Beta-lactam MIC in the presence of BLI ([4]; avibactam 0 µg/ml): 32 µg/mL
- Beta-lactam MIC in the presence of BLI ([4]; avibactam 0.008 µg/ml): 32 µg/mL
- Beta-lactam MIC in the presence of BLI ([4]; avibactam 0.031 µg/ml): 32 µg/mL
- Beta-lactam MIC in the presence of BLI ([4]; avibactam 0.06 µg/ml): 32 µg/mL
- Beta-lactam MIC in the presence of BLI ([4]; avibactam 0.5 µg/ml): 16 µg/mL
- Beta-lactam MIC in the presence of BLI ([4]; avibactam 1 µg/ml): 4 µg/mL
- Beta-lactam MIC in the presence of BLI ([4]; avibactam 2 µg/ml): 4 µg/mL
- Beta-lactam MIC in the presence of BLI ([4]; avibactam 4 µg/ml): 2 µg/mL
- Beta-lactam MIC in the presence of BLI ([4]; avibactam 8 µg/ml): 1 µg/mL
- Beta-lactam MIC in the presence of BLI ([4]; avibactam 16 µg/ml): 0.5 µg/mL
- Beta-lactam MIC in the presence of BLI ([4]; vaborbactam 0 µg/ml): 32 µg/mL
- Beta-lactam MIC in the presence of BLI ([4]; vaborbactam 0.008 µg/ml): 32 µg/mL
- Beta-lactam MIC in the presence of BLI ([4]; vaborbactam 0.031 µg/ml): 32 µg/mL
- Beta-lactam MIC in the presence of BLI ([4]; vaborbactam 0.06 µg/ml): 32 µg/mL
- Beta-lactam MIC in the presence of BLI ([4]; vaborbactam 0.5 µg/ml): 8 µg/mL
- Beta-lactam MIC in the presence of BLI ([4]; vaborbactam 1 µg/ml): 1 µg/mL
- Beta-lactam MIC in the presence of BLI ([4]; vaborbactam 2 µg/ml): 0.5 µg/mL
- Antibiotic MIC with avibactam at 4 μg/ml ([5]; PAM4751 KPC-2::L169P, avibactam 4 μg/ml): 0.5 µg/mL
- Antibiotic MIC, No BLI ([5]; PAM4751 KPC-2::L169P, no BLI): 32 µg/mL
- Beta-lactam MIC in the presence of BLI ([5]; avibactam 0 µg/ml): 32 µg/mL
- Beta-lactam MIC in the presence of BLI ([5]; avibactam 0.008 µg/ml): 32 µg/mL
- Beta-lactam MIC in the presence of BLI ([5]; avibactam 0.031 µg/ml): 32 µg/mL
- Beta-lactam MIC in the presence of BLI ([5]; avibactam 0.06 µg/ml): 32 µg/mL
- Beta-lactam MIC in the presence of BLI ([5]; avibactam 0.5 µg/ml): 4 µg/mL
- Beta-lactam MIC in the presence of BLI ([5]; avibactam 1 µg/ml): 2 µg/mL
- Beta-lactam MIC in the presence of BLI ([5]; avibactam 2 µg/ml): 1 µg/mL
- Beta-lactam MIC in the presence of BLI ([5]; avibactam 4 µg/ml): 0.5 µg/mL
- Beta-lactam MIC in the presence of BLI ([5]; vaborbactam 0 µg/ml): 32 µg/mL
- Beta-lactam MIC in the presence of BLI ([5]; vaborbactam 0.008 µg/ml): 32 µg/mL
- Beta-lactam MIC in the presence of BLI ([5]; vaborbactam 0.031 µg/ml): 32 µg/mL
- Beta-lactam MIC in the presence of BLI ([5]; vaborbactam 0.06 µg/ml): 32 µg/mL
- Beta-lactam MIC in the presence of BLI ([5]; vaborbactam 0.5 µg/ml): 4 µg/mL
- Beta-lactam MIC in the presence of BLI ([5]; vaborbactam 1 µg/ml): 0.5 µg/mL
- MIC [6]: 256 µg/mL

Compound: O=C(O)C[C@@H]1CC[C@H](NC(=O)Cc2cccs2)B(O)O1 [Vaborbactam, vaborbactam]
- MIC [1]: > 256 µg/mL
- MIC [2]: > 256 µg/mL
- PV50 ([3]; potentiation of cefepime): 0.5 µg/mL
- PV50 ([3]; potentiation of ceftazidime): 0.5 µg/mL
- PV50 ([3]; potentiation of piperacillin): 1 µg/mL
- PV50 ([4]; PAM4639 KPC-2::D179Y, potentiation of cefepime): 1 µg/mL
- PV50 ([4]; PAM4639 KPC-2::D179Y, potentiation of ceftazidime): 1 µg/mL
- PV50 ([4]; PAM4639 KPC-2::D179Y, potentiation of piperacillin): 1 µg/mL
- reduction of potency to enhance ceftazidime, cefepime or piperacillin vs wild-type KPC-2 ([5]; L169P, depending on the antibiotic): no more than 2 fold
- PV50 ([5]; PAM4751 KPC-2::L169P, potentiation of cefepime): 1 µg/mL
- PV50 ([5]; PAM4751 KPC-2::L169P, potentiation of ceftazidime): 1 µg/mL
- PV50 ([5]; PAM4751 KPC-2::L169P, potentiation of piperacillin): 1 µg/mL
- MIC [6]: > 256 µg/mL
